pIC50: −log10 of the molar value.
Tests used:
[1] = target: T1, Prostaglandin D2 receptor (Homo sapiens, UniProt Q13258); assay: Activity at DP1 receptor (unknown origin)
T1 sequence (Q13258 whole entry): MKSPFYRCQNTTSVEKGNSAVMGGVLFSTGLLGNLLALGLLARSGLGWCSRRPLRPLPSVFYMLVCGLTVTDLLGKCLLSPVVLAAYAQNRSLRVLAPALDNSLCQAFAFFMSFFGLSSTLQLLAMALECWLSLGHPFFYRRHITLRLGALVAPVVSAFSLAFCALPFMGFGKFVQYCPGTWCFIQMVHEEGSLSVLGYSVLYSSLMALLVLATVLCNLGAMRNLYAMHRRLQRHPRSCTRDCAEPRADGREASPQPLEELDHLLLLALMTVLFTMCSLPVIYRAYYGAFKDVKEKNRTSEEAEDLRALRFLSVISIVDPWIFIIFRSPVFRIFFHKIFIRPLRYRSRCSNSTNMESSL

[2] = Protein binding in human plasma; assay type: ADME, cell-free; details: read-out: PPB
Cynomolgus monkey = assay: Blood clearance in orally dosed cynomolgus monkey; assay type: ADME, organism-based, Macaca fascicularis; details: in vivo, po
[3] = Oral bioavailability in dog; assay type: ADME, organism-based, Canis lupus familiaris; details: in vivo
Cytochrome P450 1A2 = target: T2, Cytochrome P450 1A2 (Homo sapiens, UniProt P05177); assay: Inhibition of human recombinant CYP1A2; assay type: ADME; details: human, recombinant enzyme
T2 sequence (P05177 whole entry): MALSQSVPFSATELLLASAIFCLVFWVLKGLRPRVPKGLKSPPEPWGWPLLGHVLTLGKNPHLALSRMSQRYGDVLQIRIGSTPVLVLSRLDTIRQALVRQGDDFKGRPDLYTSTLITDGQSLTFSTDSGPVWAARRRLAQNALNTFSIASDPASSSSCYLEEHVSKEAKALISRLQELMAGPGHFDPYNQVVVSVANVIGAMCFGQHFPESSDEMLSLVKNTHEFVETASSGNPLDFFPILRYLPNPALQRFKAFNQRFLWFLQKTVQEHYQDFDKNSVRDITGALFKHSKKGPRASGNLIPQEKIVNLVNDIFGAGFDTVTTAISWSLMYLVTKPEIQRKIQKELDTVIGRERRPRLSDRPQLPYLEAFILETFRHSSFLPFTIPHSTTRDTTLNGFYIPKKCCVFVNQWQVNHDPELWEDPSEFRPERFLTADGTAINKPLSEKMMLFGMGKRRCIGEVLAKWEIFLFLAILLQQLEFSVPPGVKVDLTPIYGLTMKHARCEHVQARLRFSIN

[4] = Half life in orally dosed cynomolgus monkey; assay type: ADME, organism-based, Macaca fascicularis; details: in vivo, po
[5] = Ratio of drug level in brain to blood in rat at 1 mg/kg, po; assay type: ADME, organism-based
Rattus norvegicus [6] = assay: Analgesic activity in rat model of chronic constriction injury-induced neuropathic pain assessed as reversal of mechanical allodynia at 3 mg/kg dosed twice daily for 8 days relative to untreated control; assay type: functional; details: 192 h
Canis familiaris = assay: Blood clearance in orally dosed dog; assay type: ADME, organism-based, Canis lupus familiaris; details: in vivo, po
[7] = Blood clearance in rat at 1 mg/kg, po; assay type: ADME, organism-based
[8] = target: Prostaglandin F2-alpha receptor (Homo sapiens, UniProt P43088); assay: Activity at FP receptor (unknown origin)
Sequence of Prostaglandin F2-alpha receptor (P43088 whole entry): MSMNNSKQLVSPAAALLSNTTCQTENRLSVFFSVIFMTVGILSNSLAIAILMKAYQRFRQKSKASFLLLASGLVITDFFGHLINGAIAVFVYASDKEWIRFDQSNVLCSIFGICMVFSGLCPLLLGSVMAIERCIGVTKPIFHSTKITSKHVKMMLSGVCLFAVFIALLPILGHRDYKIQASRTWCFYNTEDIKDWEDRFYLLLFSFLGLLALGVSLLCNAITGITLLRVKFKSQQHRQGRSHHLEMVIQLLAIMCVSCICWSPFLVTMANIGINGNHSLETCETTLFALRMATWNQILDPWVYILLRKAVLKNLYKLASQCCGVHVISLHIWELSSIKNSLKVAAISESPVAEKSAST

Homo sapiens [9] = species: Homo sapiens; assay: Selectivity index, ratio of pIC50 for EP3 receptor (unknown origin) to pEC50 for partial agonist activity at human EP4 receptor expressed in HEK293-AEQ17 cells; assay type: cell-based
[10] = Total drug level in blood of orally dosed rat model of Freund's complete adjuvant-induced acute inflammatory pain assessed as reduction in reversal of hypersensitivity; assay type: ADME, organism-based; details: in vivo, po, read-out: Drug uptake
Rattus norvegicus [11] = assay: Potency index, ratio of ED50 for CCI17474 to ED50 for test compound for analgesic activity in orally dosed rat model of Freund's complete adjuvant-induced acute inflammatory pain assessed as reversal of FCA-induced hypersensitivity; assay type: functional
Rattus norvegicus [12] = assay: Analgesic activity in orally dosed rat model of Freund's complete adjuvant-induced acute inflammatory pain assessed as reversal of FCA-induced hypersensitivity; assay type: functional; details: po
[13] = Intrinsic clearance in dog liver microsomes; assay type: ADME, Canis lupus familiaris, microsome
[14] = target: Prostacyclin receptor (Homo sapiens) (UniProt P43119); assay: Antagonist activity at IP receptor (unknown origin) assessed as inhibition of receptor activation at 1 uM; assay type: functional
Sequence of Prostacyclin receptor (Homo sapiens) (P43119 whole entry): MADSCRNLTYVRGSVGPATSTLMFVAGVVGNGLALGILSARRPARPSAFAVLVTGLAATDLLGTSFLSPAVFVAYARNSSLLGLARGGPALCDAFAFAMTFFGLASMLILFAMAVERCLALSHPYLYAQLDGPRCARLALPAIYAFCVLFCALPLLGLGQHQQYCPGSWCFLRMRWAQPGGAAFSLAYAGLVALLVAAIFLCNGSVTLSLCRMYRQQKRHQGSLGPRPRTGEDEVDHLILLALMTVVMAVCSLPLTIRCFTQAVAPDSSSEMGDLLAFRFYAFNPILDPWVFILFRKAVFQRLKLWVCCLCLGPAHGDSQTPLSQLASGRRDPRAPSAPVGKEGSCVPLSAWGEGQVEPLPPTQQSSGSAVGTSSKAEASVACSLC

Homo sapiens [15] = species: Homo sapiens; assay: Selectivity index, ratio of pIC50 for EP1 receptor (unknown origin) to pEC50 for partial agonist activity at human EP4 receptor expressed in HEK293-AEQ17 cells; assay type: cell-based
Rattus norvegicus [16] = assay: Analgesic activity in rat model of Freund's complete adjuvant-induced acute inflammatory pain assessed as reversal of FCA-induced hypersensitivity at 3 mg/kg, po relative to untreated control; assay type: functional
Cytochrome P450 2C9 = Cytochrome P450 2C9 (Homo sapiens, UniProt P11712); assay: Inhibition of human recombinant CYP2C9; assay type: ADME; details: human, recombinant enzyme
Sequence of Cytochrome P450 2C9 (P11712 whole entry): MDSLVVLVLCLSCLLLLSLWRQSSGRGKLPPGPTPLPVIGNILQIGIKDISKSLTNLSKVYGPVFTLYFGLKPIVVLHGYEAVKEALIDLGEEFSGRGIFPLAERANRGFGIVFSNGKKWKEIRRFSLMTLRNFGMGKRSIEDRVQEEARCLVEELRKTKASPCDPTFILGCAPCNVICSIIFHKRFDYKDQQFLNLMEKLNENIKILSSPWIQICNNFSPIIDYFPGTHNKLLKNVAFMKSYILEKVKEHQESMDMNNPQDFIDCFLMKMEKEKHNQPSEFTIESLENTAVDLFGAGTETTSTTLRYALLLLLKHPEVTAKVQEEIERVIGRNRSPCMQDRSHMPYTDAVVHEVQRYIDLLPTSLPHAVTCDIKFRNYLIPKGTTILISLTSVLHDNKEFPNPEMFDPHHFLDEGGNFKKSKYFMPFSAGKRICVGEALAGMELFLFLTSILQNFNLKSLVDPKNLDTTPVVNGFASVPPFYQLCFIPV

[17] = Half life in orally dosed dog; assay type: ADME, organism-based, Canis lupus familiaris; details: in vivo, po
Rattus norvegicus [18] = assay: Analgesic activity in rat model of chronic joint pain assessed as reversal of pain by measuring weight bearing level at 1 mg/kg, po dosed twice daily for 5 days relative to untreated control; assay type: functional; details: 120 h
[19] = target: T3, Prostaglandin E2 receptor EP3 subtype (Homo sapiens, UniProt P43115); assay: Activity at EP3 receptor (unknown origin)
T3 sequence (P43115 whole entry): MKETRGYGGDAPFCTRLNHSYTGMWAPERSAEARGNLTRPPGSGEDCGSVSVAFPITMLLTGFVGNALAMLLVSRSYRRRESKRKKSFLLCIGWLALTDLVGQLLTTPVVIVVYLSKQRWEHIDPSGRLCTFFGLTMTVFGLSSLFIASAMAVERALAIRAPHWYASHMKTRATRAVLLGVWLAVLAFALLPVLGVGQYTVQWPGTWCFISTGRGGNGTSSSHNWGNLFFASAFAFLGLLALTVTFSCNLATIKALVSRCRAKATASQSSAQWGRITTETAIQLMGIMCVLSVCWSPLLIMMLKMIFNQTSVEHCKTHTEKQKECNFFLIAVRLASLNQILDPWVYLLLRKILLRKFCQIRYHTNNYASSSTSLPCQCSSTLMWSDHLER

Cytochrome P450 3A4 = Cytochrome P450 3A4 (Homo sapiens, UniProt P08684); assay: Inhibition of human recombinant CYP3A4 using DEF substrate; assay type: ADME; details: human, recombinant enzyme
Sequence of Cytochrome P450 3A4 (P08684 whole entry): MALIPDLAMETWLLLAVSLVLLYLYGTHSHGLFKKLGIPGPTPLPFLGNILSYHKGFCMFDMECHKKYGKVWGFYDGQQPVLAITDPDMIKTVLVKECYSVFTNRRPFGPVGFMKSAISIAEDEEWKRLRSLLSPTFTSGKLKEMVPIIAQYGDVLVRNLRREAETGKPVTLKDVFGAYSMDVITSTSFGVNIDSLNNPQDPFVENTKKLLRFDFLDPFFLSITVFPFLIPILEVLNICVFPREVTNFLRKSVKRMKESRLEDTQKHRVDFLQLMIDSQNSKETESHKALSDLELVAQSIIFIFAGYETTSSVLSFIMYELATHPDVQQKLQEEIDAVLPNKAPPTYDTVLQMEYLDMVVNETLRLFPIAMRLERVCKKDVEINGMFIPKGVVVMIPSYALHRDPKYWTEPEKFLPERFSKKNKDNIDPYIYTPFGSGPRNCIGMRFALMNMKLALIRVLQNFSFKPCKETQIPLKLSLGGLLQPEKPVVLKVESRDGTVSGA

Cytochrome P450 2D6 = Cytochrome P450 2D6 (Homo sapiens, UniProt P10635); assay: Inhibition of human recombinant CYP2D6; assay type: ADME; details: human, recombinant enzyme
Sequence of Cytochrome P450 2D6 (P10635 whole entry): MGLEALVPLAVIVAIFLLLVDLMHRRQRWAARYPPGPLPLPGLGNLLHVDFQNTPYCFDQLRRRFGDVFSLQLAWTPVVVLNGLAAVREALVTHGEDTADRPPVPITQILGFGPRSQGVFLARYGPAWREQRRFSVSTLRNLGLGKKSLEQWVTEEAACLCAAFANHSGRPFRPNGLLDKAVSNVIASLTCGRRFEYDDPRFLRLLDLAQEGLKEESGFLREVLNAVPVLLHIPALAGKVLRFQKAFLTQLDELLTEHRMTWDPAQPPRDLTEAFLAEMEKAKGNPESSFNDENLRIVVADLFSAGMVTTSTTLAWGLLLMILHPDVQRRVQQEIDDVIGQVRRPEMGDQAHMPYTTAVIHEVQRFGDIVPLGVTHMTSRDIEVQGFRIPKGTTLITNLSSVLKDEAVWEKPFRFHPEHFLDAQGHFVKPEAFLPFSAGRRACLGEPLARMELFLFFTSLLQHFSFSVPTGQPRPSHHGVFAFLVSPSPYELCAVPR

[20] = target: T4, Prostaglandin E2 receptor EP1 subtype (Homo sapiens, UniProt P34995); assay: Activity at EP1 receptor (unknown origin)
T4 sequence (P34995 whole entry): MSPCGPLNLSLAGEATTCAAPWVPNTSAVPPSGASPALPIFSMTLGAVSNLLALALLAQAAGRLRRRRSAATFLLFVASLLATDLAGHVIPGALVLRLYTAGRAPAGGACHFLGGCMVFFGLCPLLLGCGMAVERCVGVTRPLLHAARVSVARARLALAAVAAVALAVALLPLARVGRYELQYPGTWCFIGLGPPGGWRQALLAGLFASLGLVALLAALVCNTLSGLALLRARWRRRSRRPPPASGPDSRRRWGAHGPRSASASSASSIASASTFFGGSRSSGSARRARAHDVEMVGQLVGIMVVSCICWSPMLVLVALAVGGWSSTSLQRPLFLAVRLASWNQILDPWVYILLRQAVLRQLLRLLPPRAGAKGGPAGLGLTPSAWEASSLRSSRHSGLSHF

## CCOc1c2c(c(OCC)c3ccccc13)C(=O)N(c1ccc(CC(=O)O)c(F)c1)C2
[1]
  pIC50: < 4.50
[2]
  fraction unbound: 0.001
Cynomolgus monkey
  clearance: 4 mL/min/kg
[3]
  bioavailability: 69%
Cytochrome P450 1A2
  INH: > 100 µM
[4]
  half-life: 5 to 10 h
[5]
  Kp: < 0.05
Rattus norvegicus [6]
  inhibition in vivo at 3 mg/kg: 100%
Canis familiaris
  clearance: 4 mL/min/kg
[7]
  CL/F: 1 mL/min/kg
[8]
  pIC50: < 5.00
Homo sapiens [9]
  Selectivity ratio: > 100
[10]
  concentration: 600 nM
Rattus norvegicus [11]
  Ratio ED50: >10
Rattus norvegicus [12]
  ED50: 0.2 to 0.22 mg/kg
[13]
  CLH: < 1 mL/min/g
[14]
  inhibition: 31%
Homo sapiens [15]
  Selectivity ratio: > 100
Rattus norvegicus [16]
  Activity: 80%
Cytochrome P450 2C9
  INH: > 100 µM
[17]
  half-life: 8 h
Rattus norvegicus [18]
  inhibition in vivo at 1 mg/kg: 100%
[19]
  pIC50: < 5.00
Cytochrome P450 3A4
  INH: > 100 µM
Cytochrome P450 2D6
  INH: > 100 µM
[20]
  pIC50: < 5.00
